We go through 2 compounds from paper PMC3302888, “Small-Animal PET Imaging of Amyloid-Beta Plaques with [^11C]PiB and Its Multi-Modal Validation in an APP/PS1 Mouse Model of Alzheimer's Disease” (PLoS ONE, 2012).

The test system of one assay is Aβ plaques. Nature of the assay: Small-animal PET of mouse brain with [^11C]PiB, cerebellum as reference region. The settings on record: for BPND (MRTM2, Ichise et al., 2003) mean ± SD: neocortex target, cerebellum reference; for PET BPND neocortex: [^3H]PiB/[^11C]PiB cocktail, 30 min scan. It is filed as in vivo. An excerpt: Most of the small-animal PET data was acquired with a microPET FOCUS F120 scanner (Siemens Medical Solutions, Malvern, USA). In the combined multi-modal experiment PET data for the four animals was acquired with a docked Siemens Inveon PET/CT system (Siemens Medical Solutions, Knoxville, USA), [66], [67].
After induction of anesthesia and placement of the catheter systems, the animals were placed with their heads in the center of the field of view and were fixed in the scanner in prone head first position (HFP). At the beginning of the PET scanning procedure, a 9 min transmission scan (^68Ge rod source, Focus F120) or CT scan (Inveon) was performed in all animals.
[^11C]PiB was given via the catheter system intravenously in a slow bolus, followed by flushing with isotonic saline solution such that the total applied volume was 0.22±0.06 ml. The amount of injected activity was controlled real-time with registered prompts such that they ranged between 150000 to 200000 at the end of [^11C]PiB application, ensuring a dead time <5% at 30 min p.i.. The radioactivity in the syringe was measured immediately before and after injection with a Capintec CRC 15R (Capintec Inc, NJ, USA) dose calibrator. The time between measurements was 2 to 3 min.
Dynamic data acquisition was performed in 3D listmode for 30 or 60 min starting immediately with injection of the tracer. The emission data were normalized and corrected for decay and dead time. The resulting sinograms were reconstructed with FBP (filtered back-projection using a ramp filter with a cut-off at the Nyquist frequency) into 2, 3, 6, 12, 60 and 120 frames of equal length used for motion correction, ratio measurements and image production and 52 frames (24×10 s, 12×30 s, 10×120 s, 6×300 s) and 162 frames (120×1 s, 24×10 s, 8×30 s, 10×300 s) for time-activity-curve (TAC) generation. The image volume consisted of 128×128×95 voxels, with a size of 0.866×0.866×0.796 mm^3 per voxel for the Focus F120 scanner and 128×128×159 voxels, with a size of 0.776×0.776×0.796 mm^3 per voxel for the Inveon scanner.
To assess varying PiB retention of individual animals within the study collective and to verify the consistency of results, three quantification methods were used similar to Maeada et al.. First, [^11C]PiB uptake in the target region was divided by [^11C]PiB uptake in the cerebellum as measured in a static 10 min-frame (20–30 min). Second, the tissue ratio methods as proposed by Ito et al. were calculated. Third, the multilinear reference tissue model 2 (MRTM2, [45]) was fitted to cortex time-activity curves (TACs) (merged neocortex) after reduction of parameters by estimating individual efflux rate constants for [^11C]PiB from the reference region (k2′) with the MRTM [45] and four regional cortical time-activity curves.
Parametric images of [^11C]PiB retention (BPND maps (MRTM2)) were generated for four representative mice (Figure 2 and S1). For all analyses, the cerebellum was used as the reference region. To quantify the dynamic data, TACs with high initial time resolution (162 frames: 120×1 s, 24×10 s, 8×30 s, 10×300 s) were used (Figure 1).
Then, the radioactivity of the whole animal was measured in a Capintec dose calibrator, the animal killed by decapitation, the whole brain taken out and blood drawn for biodistribution and radioactivity measurement. One half of the brain was dissected for regional brain biodistribution (olfactory system, telencephalon, cerebellum and remaining brain structures (diencephalon, midbrain)) and deep-frozen immediately after gamma counting for later ELISA analysis of soluble and insoluble Aβx–40 and Aβx–42. […]

Assay [1] concerns mouse brain tissue homogenate (APP/PS1 hemi-forebrain). Nature of the assay: Radioligand saturation binding assay with [^3H]PiB, mouse brain homogenate. The protocol:
(§1) The frozen mouse hemi-forebrains (50 mg/ml) and human brain samples (100 mg/ml) for the radioligand binding assay were first prepared in tissue homogenization buffer (20 mM Tris base, 1 mM EDTA, 1 mM EGTA, cOmplete Protease Inhibitor Cocktail (Roche Applied Science, Mannheim, Germany)) using a 30 ml hand glass homogenizer (Dounce type, tight fit) (Sartorius Stedim Biotech, Göttingen, Germany) which was used for subsequent ELISA analysis. The stocks were then supplemented with 250 mM sucrose and stored at −70°C for later tracer binding analysis. All other tissue samples were processed for ELISA as reported by Willuweit et al.
(§2) All brain homogenates were diluted in PBE buffer (10 mM dibasic sodium phosphate, 1 mM EDTA, 10% EtOH) to a final concentration of 1000 µg/ml. Synthetic human Aβ1–40 fibrils (EZBioLab, Carmel, IN, USA) were prepared as described by Lockhart et al. (0.5 mg/ml, pH 7.4, 200 rpm at 37°C for 48 h) and were used as positive control at a final concentration of 10 µg/ml (Figure S8).
(§3) Nonspecific binding was determined in the presence of 3 µM unlabeled PiB (ABX, Radeberg, Germany) including 1 h preincubation. Each tissue sample was deployed on two 96-well cell culture plates (Greiner Bio-One, Frickenhausen, Germany) to a final reaction volume of 280 µl per well using 8-channel electronic pipettes (Mettler Toledo, Giessen, Germany) giving 24 octuples of data points per sample.
(§4) The bound and free fractions were seperated by vacuum filtration through 0.3% polyethyleneimine-pretreated GF/B glass filtermats (GE Healthcare/Whatman, Dassel, Germany) using a semi-automated Harvester 96 Mach II M (Tomtec, Hamden, CT, USA). A constant automated 5-cycle pulse-wash program (optimized for flow rate and volume) guaranteed stable harvesting with 1.2 ml PBE washing per well at 2 psi.
(§5) Filters were cut and incubated in Aquasafe300plus scintillator (Zinsser Analytic, Frankfurt, Germany) for 36 h before counting in a Wallac WinSpectral 1414 liquid scintillation counter (PerkinElmer, Rodgau, Germany).
(§6) The specific binding signal under these assay conditions was between 56% (human) and 91% (synthetic protein). Data were analyzed using GraphPad Prism version 5.0 d for Mac (GraphPad Software, La Jolla, CA, USA) to estimate the apparent dissociation constant (Kd), the maximal number of binding sites (Bmax) and the in vitro binding potential (BP) using the one-site and two-site global analysis models.
(§7) Division by Kd in nanomolar units directly results in BP.

The subject of another assay is APP/PS1 mouse brain. Further details: method as in PMID 16291932. The settings on record: very old hemizygous APP/PS1 animals; classical Scatchard analysis; cited from earlier work.
Another assay concerns human brain. Further details: method as in PMID 16291932. The settings on record: humans; cited from earlier work.
For assay [2], the system named is postmortem human brain tissue homogenate (temporal cortex). Nature of the assay: Radioligand saturation binding assay with [^3H]PiB, human brain homogenate. The method, then: as §1, §2, §3, §4, §5, §6, §7

Structures are written as SMILES. “And” between values parts separate entries of the source, which are not always exact repeats. Equal entries are not always repeated. Where two headings read alike, the source gives them in different places.

In the case of `[11CH3]Nc1ccc(-c2nc3ccc(O)cc3s2)cc1` [[^11C]PiB, N-[^11C-methyl]-6-OH-BTA-1], the “BPND (MRTM2, Ichise et al., 2003) mean ± SD” value is given as -0.08 ± 0.01 with Aβ plaques (ctl-old (N = 5)), 0.28 ± 0.06 in the assay with Aβ plaques (tg-old (N = 5)), 0.51 ± 0.13 with Aβ plaques (tgtg-old (N = 7)) and 0.12 ± 0.04 in the assay on Aβ plaques (tgtg-young (N = 5)). Besides, the “PET BPND neocortex” value in the assay with Aβ plaques (individual animals AD1, AD2 (tgtg-young, 9 months)) is 0.06; in the assay on Aβ plaques (individual animals CTL1, CTL2 (ctl-young)) it was −0.06 and −0.07.
Take `CNc1ccc(-c2nc3ccc(O)cc3s2)cc1` [[^3H]PiB]: the “in vitro binding potential (BP)” value in assay [1] (mouse control brain (msCTL), total binding not different to nonspecific binding) is approximately 0; in assay [1] (tg-old mouse brain tissue, single binding site model), 11.9±0.9 and 11.9; in assay [1] (tgtg-old mouse brain tissue, single binding site model), 69 and 69.2±2.7 and 69.2; in assay [1] (tgtg-young mouse brain tissue, single binding site model), 14.3±0.9 and 14.3; in assay [2] (huAD-0 (mild human AD, Cerad-0, Braak II), single binding site model), approximately 0; in assay [2] (huAD-C (severe human AD, Cerad-C, Braak V), single binding site model) it was 38 and 38.2±4.7 and 38.2. Also, the “in vitro binding potential (BP)” value in assay [2] (huCTL (human control brain, Cerad-0, Braak I), single binding site model) was approximately 0. Besides, the “Bmax of the high-affinity component” value in assay [1] (tgtg-old tissue, two site binding model) came to 289.3 ± 123.9 fmol/mg; in assay [2] (huAD-C, two site binding model) it was 156.7 ± 7.3 fmol/mg. Also, the Kd in assay [1] (tgtg-old tissue, two site binding model, read-out: Kd of the high-affinity component) was 5.7 ± 4.1 nM; in assay [2] (huAD-C homogenate, single binding site model, read-out: Kd), 5.2 ± 0.9 nM; in assay [2] (huAD-C, two site binding model, read-out: Kd of the high-affinity component), 3.4 ± 1.4 nM. Moreover, in the assay with APP/PS1 mouse brain, the “BP of the high-affinity component” value is 78. For the same compound, the “BP of high-affinity binding sites” value in the assay with human brain was 636. For the same compound, the “tracer concentration at which saturation binding was reached” value in assay [2] (huAD-C homogenate) is listed as “around 8 nM”. Also, in assay [2] (huAD-C homogenate, single binding site model), the Bmax was determined as 200 ± 12 fmol/mg.
